Compound: Nc1nc2[nH]cc(CCc3ccc(C(=O)N[C@@H](CCC(=O)O)C(=O)O)cc3)c2c(=O)[nH]1 [Pemetrexed]
Experiment: relative viability (nuclei count vs DMSO), 5 days (fraction); higher = more cells survive
Summary of the method: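 On vehicle-anchored 1536-well plates, lung cancer cell lines held overnight at 37 °C were pinned with five library-drug doses (not always all listed) spaced by √10. With no medium change over 5 days, they were then fixed, permeabilised and Hoechst-stained in one step and imaged at 4×. MetaXpress counted nuclei, and viability is the median across plates of treated-well over vehicle-well nuclei. Acceptance needed control CV below 25% and at least one doubling.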

Row | Cell Line | relative viability (0.002 µM) | relative viability (0.006325 µM) | relative viability (0.02 µM) | relative viability (0.06325 µM) | relative viability (0.2 µM) | relative viability (0.2 µM, anchor plate)
1 | 201T | 1.01 | 0.998 | 1.04 | 0.996 | 0.91 | 0.323
2 | A549 | 0.938 | 0.948 | 1.09 | 0.973 | 1.01 | –
3 | A-427 | 0.94 | 1.05 | 1.07 | 0.992 | 0.939 | 0.98
4 | ABC-1 | 0.911 | 1.02 | 1.22 | 0.976 | 0.822 | –
5 | BEN | 0.964 | 1 | 1.06 | 0.947 | 0.769 | 0.829
6 | CAL-12T | 0.936 | 0.938 | 1.16 | 0.967 | 0.863 | 1.19
7 | COR-L23 | 0.998 | 0.979 | 1.04 | 0.375 | 0.211 | 0.2
8 | COR-L 105 | 0.947 | 0.896 | 1.14 | 0.883 | 0.978 | 1.12
9 | Calu-6 | 0.92 | 0.96 | 1.1 | 1 | 0.886 | –
10 | ChaGo-K-1 | 1.05 | 0.942 | 0.98 | 0.418 | 0.312 | 0.261
11 | EBC-1 | 0.951 | 0.951 | 1.09 | 1.01 | 0.735 | –
12 | EKVX | 0.854 | 0.984 | 1.03 | 0.995 | 0.734 | 0.404
13 | EMC-BAC-2 | 0.868 | 1.04 | 1.12 | 0.966 | 0.782 | 0.444
14 | EPLC-272H | 0.888 | 0.892 | 1.1 | 0.935 | 0.798 | 0.313
15 | H3255 | 0.819 | 1.03 | 0.986 | 1.07 | 0.827 | 0.587
16 | HARA | 0.944 | 1.05 | 1.12 | 0.904 | 0.225 | 0.241
17 | HCC-15 | 0.823 | 0.948 | 1.09 | 0.978 | 0.402 | 0.227
18 | HCC-44 | 0.839 | 0.989 | 1.06 | 0.995 | 0.796 | 0.647
19 | HCC-78 | 0.674 | 0.98 | 0.877 | 0.43 | – | –
20 | HCC-366 | 0.964 | 0.985 | 1.07 | 0.991 | – | –
21 | HCC-827 | 0.908 | 1.09 | 1.05 | 1.02 | – | –
22 | HOP-62 | 0.864 | 0.949 | 1.08 | 0.964 | – | –
23 | IA-LM | 0.838 | 0.937 | 0.959 | 0.988 | 0.865 | –
24 | LC-2-ad | 0.815 | 0.974 | 0.967 | 0.296 | 0.3 | 0.285
25 | LCLC-97TM1 | 0.913 | 0.891 | 0.93 | 1.02 | – | –
26 | LCLC-103H | 0.89 | 1.01 | 1.01 | 1.02 | 0.935 | 0.477
27 | LK-2 | 0.854 | 0.925 | 1.06 | 0.868 | 0.685 | 0.284

Row | Cell Line | relative viability (0.002 µM) | relative viability (0.006325 µM) | relative viability (0.02 µM) | relative viability (0.06325 µM) | relative viability (0.2 µM) | relative viability (0.2 µM, anchor plate)
28 | LOU-NH91 | 0.948 | 1 | 1.06 | 0.678 | 0.521 | 0.388
29 | LU99A | 0.869 | 0.92 | 1.07 | 1.08 | – | –
30 | LXF-289 | 0.938 | 0.999 | 1.04 | 1.02 | 0.939 | 0.905
31 | NCI-H23 | 0.893 | 0.987 | 1.18 | 0.91 | 0.905 | 0.714
32 | NCI-H322M | 1.09 | 0.934 | 0.98 | 0.983 | 0.741 | 0.634
33 | NCI-H358 | 0.958 | 0.925 | 0.864 | 0.293 | 0.24 | 0.176
34 | NCI-H441 | 0.917 | 1.01 | 1.1 | 0.688 | 0.452 | 0.255
35 | NCI-H460 | 0.878 | 0.969 | 1.03 | 0.745 | 0.116 | 0.065
36 | NCI-H520 | 0.938 | 0.969 | 0.95 | 0.936 | 0.975 | 0.693
37 | NCI-H522 | 1.18 | 0.999 | 0.916 | 0.868 | 1.03 | 1.03
38 | NCI-H596 | 0.996 | 0.909 | 0.942 | 0.732 | 0.436 | 0.499
39 | NCI-H647 | 0.734 | 1.01 | 1.04 | 0.883 | 0.289 | 0.182
40 | NCI-H650 | 0.851 | 0.905 | 0.987 | 0.857 | 1.02 | 0.925
41 | NCI-H661 | 1 | 0.975 | 1.02 | 0.977 | 0.967 | 0.923
42 | NCI-H727 | 0.844 | 0.931 | 0.899 | 0.958 | 0.899 | –
43 | NCI-H838 | 0.99 | 0.917 | 1.08 | 0.869 | 0.359 | 0.257
44 | NCI-H1299 | 1.01 | 0.998 | 1.06 | 0.991 | 0.959 | –
45 | NCI-H1355 | 0.787 | 0.962 | 0.999 | 1.05 | 1 | 1.04
46 | NCI-H1395 | 0.796 | 1.02 | 1.09 | 0.994 | 0.86 | 0.892
47 | NCI-H1437 | 0.741 | 0.974 | 0.998 | 0.704 | 0.493 | 0.319
48 | NCI-H1563 | 0.907 | 0.955 | 0.991 | 1.03 | 1.01 | 0.799
49 | NCI-H1623 | 0.899 | 1.04 | 0.976 | 0.912 | 0.955 | –
50 | NCI-H1648 | 0.992 | 0.924 | 0.888 | 0.783 | 0.931 | 0.77
51 | NCI-H1650 | 0.788 | 0.89 | 1.21 | 0.633 | 0.341 | 0.367
52 | NCI-H1651 | 0.951 | 0.91 | 1.04 | 0.95 | 0.945 | 0.616
53 | NCI-H1666 | 1.05 | 1.02 | 0.999 | 1.02 | 0.796 | 0.834
54 | NCI-H1703 | 0.917 | 0.871 | 1.39 | 1.06 | 0.92 | –

Row | Cell Line | relative viability (0.002 µM) | relative viability (0.006325 µM) | relative viability (0.02 µM) | relative viability (0.06325 µM) | relative viability (0.2 µM) | relative viability (0.2 µM, anchor plate)
55 | NCI-H1734 | 0.997 | 0.923 | 1.11 | 0.964 | 0.676 | 0.433
56 | NCI-H1755 | 0.872 | 0.983 | 1.01 | 0.995 | 0.879 | 0.47
57 | NCI-H1792 | 1.09 | 0.897 | 1 | 0.893 | 0.94 | 0.968
58 | NCI-H1793 | 0.909 | 0.807 | 0.986 | 0.987 | 0.93 | 0.923
59 | NCI-H1915 | 0.95 | 0.976 | 1.12 | 0.982 | 0.98 | 0.507
60 | NCI-H1944 | 0.716 | 0.99 | 1.04 | 0.956 | 0.969 | 0.619
61 | NCI-H1975 | 0.698 | 0.938 | 1.01 | 0.87 | 0.54 | 0.291
62 | NCI-H1993 | 0.866 | 0.995 | 0.962 | 0.896 | 0.734 | 0.592
63 | NCI-H2009 | 0.905 | 0.953 | 1.14 | 0.997 | 0.976 | 1.03
64 | NCI-H2023 | 0.762 | 0.87 | 1.11 | 0.802 | 0.292 | 0.249
65 | NCI-H2085 | 0.947 | 0.979 | 1.08 | 1.03 | 0.98 | 0.921
66 | NCI-H2087 | 0.926 | 0.875 | 1.15 | 1.05 | 0.639 | 0.684
67 | NCI-H2126 | 0.974 | 0.992 | 1.04 | 1 | 0.91 | 0.684
68 | NCI-H2170 | 0.952 | 0.928 | 1.04 | 1.01 | – | –
69 | NCI-H2228 | 0.799 | 0.878 | 1.2 | 0.838 | 0.333 | 0.339
70 | NCI-H2342 | 0.804 | 0.95 | 1.03 | 1.02 | 1.08 | 0.769
71 | NCI-H2347 | 0.931 | 0.965 | 1.14 | 0.9 | 0.655 | 0.42
72 | NCI-H2405 | 0.97 | 0.985 | 1.09 | 0.98 | 0.961 | 1.08
73 | NCI-H3122 | 1.01 | 0.953 | 1.02 | 0.951 | 0.576 | 0.201
74 | PC-3 [JPC-3] | 0.882 | 1.1 | 1.06 | 1.04 | 0.964 | 1.16
75 | PC-14 | 0.975 | 1.01 | 1.08 | 0.602 | 0.142 | 0.136
76 | RERF-LC-KJ | 0.958 | 0.969 | 1.03 | 0.995 | 0.746 | 0.486
77 | SK-LU-1 | 0.944 | 0.979 | 1.05 | 1.12 | 1 | 0.927
78 | SK-MES-1 | 0.979 | 0.932 | 1.07 | 0.976 | 0.934 | 0.94
79 | SW 900 | 0.809 | 0.907 | 0.948 | 0.814 | 0.487 | 0.496
80 | SW 1573 | 1.04 | 0.951 | 1.05 | 0.893 | 0.976 | 0.897

Reference: the supplement of paper PMC10307832
